Measured values as given in patent US20140066595A1, “Modulators of Protein Production in a Human Cell Line and Cell-free Extracts Produced Therefrom” (THERMO FISHER SCIENTIFIC BIOSCIENCES INC., priority 2012, published 2014).
Entries after “also recorded” stand apart in the source; their conditions may differ.

How the values were obtained:
HeLaS3-Gluc cells [1] = test: Gluc expression of HeLaS3-Gluc cells treated with amiloride, with or without ER stressors; assay type: cell-based, human
Protocol: (§1) HeLaS3-Gluc cells were plated at 10K/well and incubated overnight. Subsequently, they were pre-treated with amiloride and incubated for 1 hour. Amiloride was used at increasing doses, both alone and in the presence of cellular stressors tunicamycin or thapsigargin. When the ER stressors were included, incubation was for 2 hours, at which time Gluc was measured. The media was then changed, and amiloride and ER stressors were added again. This time incubation was overnight. The media was again changed and the amount of Gluc made was measured after two hours. Amiloride was used in amounts of 0-500 μM. Tunicamycin was used in an amount of 5 μM. Thapsigargin was used in an amount of 2 μM.

HeLaS3-Gluc cells [2] = test: Viability of HeLaS3-Gluc cells treated with amiloride, with or without ER stressors; assay type: cell-based, human
Protocol: as §1

[3] = amiloride alone, 0-500 μM, no stress, normalized to no amiloride at 18 hours (FIG. 1)

SMILES: N=C(N)NC(=O)c1nc(Cl)c(N)nc1N [amiloride, 3,5-diamino-6-chloro-N-(diaminomethylene) pyrazine 2-carboxamide]
- Gluc expression (luciferase output) under ER stress (HeLaS3-Gluc cells [1]; amiloride 0-500 μM with tunicamycin 5 μM or thapsigargin 2 μM, 18 hours (FIG. 3)): rescued by treatment with an increasing amount of amiloride; also recorded: can restore Gluc expression
- Gluc expression (luciferase output) of unstressed cells (HeLaS3-Gluc cells [1]; [3]): did not lead to increased luciferase output
- cell viability under ER stress (HeLaS3-Gluc cells [2]; amiloride 0-500 μM with tunicamycin 5 μM or thapsigargin 2 μM, normalized to no stress at 18 hours (FIG. 2)): does not have an additional effect on cell viability
- viability of unstressed cells (HeLaS3-Gluc cells [2]; [3]): decrease in viability
